Assay results published in patent US9618513B2, “Compositions and methods for detecting and treating colorectal cancer” (The Regents of the University of Michigan, priority 2014, dated 2017).

Experiments:
Assay type in all cases: cell-based, human
[1] = test system: CD4+ T cells; test: Transwell migration assay; conditions: CCL-20 5 ng/ml in lower chamber, 4 h
Description: (A, B) IL-22 is expressed by immune cells in colon cancer tissues. Different cell populations were sorted from colon cancer tissues and IL-22 expression was measured by real time PCR. (5-10 donors, P<0.05). (C) IL-22 is spontaneously released by different immune cell populations in colon cancer tissues. Different CD45^+ immune subsets (10^6/ml) were sorted from colon cancer and blood, and cultured for 12 hours. IL-22 was detected via ELISA. (n=5, *P<0.05). (D, E) IL-22 is expressed by activated CD4^+ T cells in colon cancer tissues. CD45^+ subsets (10^6/ml) were sorted from colon cancer and blood, and were activated with anti-CD3 and anti-CD28 for 2 days. IL-22 was detected with ELISA (D) or intracellular staining (E). (n=5, *P<0.05). (F, G) CCR6^+CD4^+ T cells express IL-22. CD4^+ T cells were sorted based on CCR6 expression and activated with anti-CD3 and anti-CD28 and antigen presenting cells. IL-22 mRNA was detected by real time PCR (F) and protein by ELISA (G). (5 different donors, P<0.05). […] IL-22 expression was quantified with real-time PCR in the migrated and non-migrated cells. Results are expressed as the mean relative expression (H). The phenotype of migrated cells, non-migrated cells and control (before migration) was analyzed by FACS (I). […] The mRNA of stem cell core genes was detected by real-time PCR after 6 hours (K) and ALDH activity was detected by FACS after 48 hours (L). […]

[2] = test system: colon cancer cells; test: Colon cancer cell proliferation (Ki67 FACS, H3 thymidine incorporation, cell counting); conditions: H3 thymidine incorporation
Source text: A. GSEA analysis identifies proliferation pathways have positive correlation with IL-22. B. Cell proliferation maker Ki67 was detected by FACS. C. H^3 Thymidine Incorporation was used to detect the function of IL-22 in cell proliferation. D. Cell number was counted after stimulated with IL-22. E. Cells isolated from colon cancer tissue (Tumor cells and Leukocytes) were stimulated with a-CD3 and […] for 3 days, and supernatant mixed with or without anti-IL-22 antibody was co-cultured with DLD1 cells for 24 h to test cell proliferation. F. Cell cyclin-dependent kinase and kinase inhibitors were analyzed by Real-Time PCR.
A, C. Cell proliferation was analyzed using H^3 Thymidine Incorporation. B. The level of total H3K79m2 and H3K27me3 was measured by Western Blot. D. PcG proteins of EZH2, EED, SUZ12 was increased with IL-22(20 ng/ml) treatment. E. EZH2, SUZ12 and EED was detected by Western Blot after IL-22 treated for 24 h or 48 h. F. EZH2 inhibitor DZNep reduced cell proliferation. G.H. The efficiency of EZH2 and SUZ12 knock down was tested by Western Blot. I.J. Cell proliferation was analyzed using H^3 Thymidine Incorporation after knock down of EZH2 and SUZ12. K.L. Relative expression of cyclin-dependent kinase inhibitors (p16 and p18) in shEZH2, shSUZ12 and Dznep treated cells after IL-22 treatment. M. The level of H3K27me3 in the promoter of p16 and p18 was analyzed by ChIP assay.
A. The protein level of phosphorylated STAT3, STAT1 and STATS were activated by IL-22. B. The effect of STAT3 knock down. C. The effect of IL-22 on cell proliferation was analyzed using H^3 Thymidine Incorporation in Stat3 knock down cells. D. Knock down of STAT3 reduced the expression of EZH2 and SUZ12. E. Based on the ENCODE STAT3-ChIP-Seq data base, STAT3 occupancy on the promoter areas of SUZ12 and EED is shown. F. SUZ12/EED DNA was detected by ChIP assay using an antibody against STAT3, c-fos was used as a positive control.
(§1) Three primary colon cancer cell lines (SB, WR, JR) were established from fresh colon tissues. These primary colon cancer cells and DLD1 (ATCC) were studied. Colon cancer cells were treated with recombinant IL-22 (R&D) for different time points. The EZH2 inhibitor DZNep was added in conventional or sphere culture (see, e.g., Kryczek, I., et al., (2012) International journal of cancer 130, 29-39). Tumor cell sphere formation and gene expression were examined (see, e.g., Kryczek, I., et al., (2012) International journal of cancer 130, 29-39).

[3] = test system: primary colon cancer cell line SBCA; test: Proliferation of primary colon cancer cell line SBCA
Description: FIG. 21A-E A. Dot1L/H3K79me2 inhibitor EZP004777 (10 uM) had no effect on SUZ12 expression but reduce Sox2. B. EZP004777 had no effect on primary colon cancer cell line SBCA. C. EZH2 inhibitor DZNep reduced SBCA cell proliferation. D. SUZ12 knockdown reduced H3K27m3 level. E. Effect of I1-22 on tumor sphere assay was analyzed in shEZH2, shSUZ12 and Dznep treated cells.
as §1

Compound | T cell migration [1] | colon cancer cell proliferation induced by IL-22 [2] | SBCA cell proliferation [3]
CCL20: the ligand for CCR6; CCL-20 (5 ng/ml, R&D) | efficiently migrated |  | 
Nc1nccc2c1ncn2C1C=C(CO)C(O)C1O (stereo not drawn) [DZNep, reference compound] |  | significantly blocked | reduced
